Laboratory results published in the NIST ThermoML archive (doi:10.1021/je800463k).

Test: mn = molality of the nth substance listed, in mol/kg
Conditions: 101 kPa, Liquid; for mass density: Pycnometric method; for electrical conductivity: Frequency=0.001 MHz, Alternating current cell with electrodes; for speed of sound: Frequency=2 MHz

CC(=O)[O-].CC(=O)[O-].[Mg+2] [magnesium acetate] + CO
Conditions | electrical conductivity [S/m] | mass density [kg/m3] | speed of sound [m/s] | viscosity [mPa·s]
299.65 K, m1 = 0.2422 | – | 803.36 | – | –
300.15 K, m1 = 0.2003 | – | 800.18 | – | –
300.2 K, m1 = 0.1402 | – | 796.94 | – | –
300.25 K, m1 = 0.0646 | – | 791.69 | – | –
300.35 K, m1 = 0.053 | – | 789.91 | – | –
300.8 K, m1 = 0.0339 | – | 788.95 | – | –
300.8 K, m1 = 0.3042 | – | 804.76 | – | –
300.85 K, m1 = 0.014 | – | 787.26 | – | –
300.85 K, m1 = 0.2668 | – | 803.07 | – | –
301.1 K, m1 = 0.1112 | – | 794.25 | – | –
301.5 K, m1 = 0.2422 | – | 801.62 | – | –
301.9 K, m1 = 0.2003 | – | 798.5 | – | –
301.9 K, m1 = 0.2192 | – | 799.27 | – | –
301.95 K, m1 = 0.1798 | – | 798.03 | – | –
302.05 K, m1 = 0.0646 | – | 790 | – | –
302.15 K, m1 = 0.053 | – | 788.23 | – | –
302.2 K, m1 = 0.0093 | – | 785.05 | – | –
302.35 K, m1 = 0.0059 | – | 784.31 | – | –
302.55 K, m1 = 0.3042 | – | 803.02 | – | –
302.8 K, m1 = 0.2668 | – | 801.25 | – | –
302.85 K, m1 = 0.1455 | – | 794.77 | – | –
302.9 K, m1 = 0.1402 | – | 794.38 | – | –
303.05 K, m1 = 0.0855 | – | 789.45 | – | –
303.15 K, m1 = 0.0059 | 0.0362 | 783.47 | 1086.1 | –
303.15 K, m1 = 0.0093 | 0.0586 | – | 1085.4 | –
303.15 K, m1 = 0.014 | – | – | – | 0.5207
303.15 K, m1 = 0.018 | 0.0665 | – | 1086.1 | 0.5223
303.15 K, m1 = 0.0339 | 0.0868 | – | – | 0.5306
303.15 K, m1 = 0.053 | 0.1018 | – | 1087.5 | –
303.15 K, m1 = 0.0646 | 0.1103 | – | – | 0.5393
303.15 K, m1 = 0.0855 | 0.122 | – | 1090.3 | –
303.15 K, m1 = 0.1012 | – | – | – | 0.5622
303.15 K, m1 = 0.1024 | 0.1302 | – | 1093.3 | –
303.15 K, m1 = 0.13 | – | – | – | 0.5718
303.15 K, m1 = 0.1402 | 0.1487 | – | 1092.4 | 0.5779
303.15 K, m1 = 0.1455 | 0.1524 | – | 1091.9 | –
303.15 K, m1 = 0.17 | – | – | – | 0.5933
303.15 K, m1 = 0.1837 | 0.1617 | – | 1094.3 | –
303.15 K, m1 = 0.2003 | – | – | – | 0.6048
303.15 K, m1 = 0.2192 | – | – | 1097.7 | –
303.15 K, m1 = 0.2422 | 0.1746 | – | 1095.1 | –
303.15 K, m1 = 0.2889 | 0.181 | – | 1098.2 | –
303.15 K, m1 = 0.3042 | – | – | 1099.8 | –
